From PubChem BioAssay (NCI)
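Cultured in 96-well plates, cells were exposed to test compound for 48 hours across five concentrations. The concentration for full growth arrest is given as TGI.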 The source made the active and inactive calls. Cut-off read from the data, not from the text of the source: active = GI50 below about 0.43 µM; inactive = the rest.

Tests used:
Experiment in all cases: inhibition of tumour cell growth, NCI panel, 48 h
OVCAR-8 ovarian = tested on: OVCAR-8 ovarian
MOLT-4 leukemia = tested on: MOLT-4 leukemia
NCI-H522 lung = tested on: NCI-H522 lung
NCI-H226 lung = tested on: NCI-H226 lung
RPMI-8226 leukemia = tested on: RPMI-8226 leukemia
RXF-631 renal = tested on: RXF-631 renal
SK-MEL-2 melanoma = tested on: SK-MEL-2 melanoma
SR leukemia = tested on: SR leukemia
SNB-75 CNS = tested on: SNB-75 CNS
IGROV1 ovarian = tested on: IGROV1 ovarian
HT29 colon = tested on: HT29 colon
MALME-3M melanoma = tested on: MALME-3M melanoma
OVCAR-3 ovarian = tested on: OVCAR-3 ovarian
RXF 393 renal = tested on: RXF 393 renal
SK-OV-3 ovarian = tested on: SK-OV-3 ovarian
XF 498 CNS = tested on: XF 498 CNS
TK-10 renal = tested on: TK-10 renal
HCT-15 colon = tested on: HCT-15 colon
U251 CNS = tested on: U251 CNS
DLD-1 colon = tested on: DLD-1 colon
OVCAR-4 ovarian = tested on: OVCAR-4 ovarian
SF-268 CNS = tested on: SF-268 CNS
HOP-92 NSCLC = tested on: HOP-92 NSCLC
DMS 273 small cell lung = tested on: DMS 273 small cell lung
SF-539 CNS = tested on: SF-539 CNS
UACC-257 melanoma = tested on: UACC-257 melanoma
SW-620 colon = tested on: SW-620 colon
SNB-78 CNS = tested on: SNB-78 CNS
KM12 colon = tested on: KM12 colon
COLO 205 colon = tested on: COLO 205 colon
HOP-62 NSCLC = tested on: HOP-62 NSCLC
LOX IMVI melanoma = tested on: LOX IMVI melanoma
NCI-H460 lung = tested on: NCI-H460 lung
K-562 leukemia = tested on: K-562 leukemia
LXFL 529 NSCLC = tested on: LXFL 529 NSCLC
UO-31 renal = tested on: UO-31 renal
CCRF-CEM leukemia = tested on: CCRF-CEM leukemia
786-0 renal = tested on: 786-0 renal
CAKI-1 renal = tested on: CAKI-1 renal
EKVX NSCLC = tested on: EKVX NSCLC
HL-60(TB) leukemia = tested on: HL-60(TB) leukemia
SNB-19 CNS = tested on: SNB-19 CNS
M14 melanoma = tested on: M14 melanoma
NCI-H23 lung = tested on: NCI-H23 lung
SN12C renal = tested on: SN12C renal
SF-295 CNS = tested on: SF-295 CNS
UACC-62 melanoma = tested on: UACC-62 melanoma
KM20L2 colon = tested on: KM20L2 colon
ACHN renal = tested on: ACHN renal
OVCAR-5 ovarian = tested on: OVCAR-5 ovarian
A549 NSCLC = tested on: A549 NSCLC
HCC-2998 colon = tested on: HCC-2998 colon
DMS 114 small cell lung = tested on: DMS 114 small cell lung
HCT-116 colon = tested on: HCT-116 colon
SK-MEL-28 melanoma = tested on: SK-MEL-28 melanoma
M19-MEL melanoma = tested on: M19-MEL melanoma
SK-MEL-5 melanoma = tested on: SK-MEL-5 melanoma

**Q.** With `C[C@@]1(CO)O[C@H]1CCC#C[Si](C)(C)C` as the molecule, how does the outcome (OVCAR-8 ovarian) read?
**A.** inactive

**Q.** And the outcome (MOLT-4 leukemia)?
**A.** inactive

**Q.** And the outcome (NCI-H522 lung)?
**A.** inactive

**Q.** And the outcome (NCI-H226 lung)?
**A.** inactive

**Q.** What about the outcome (RPMI-8226 leukemia) of the same molecule?
**A.** inactive

**Q.** What about the outcome (RXF-631 renal) of the same molecule?
**A.** inactive

**Q.** And the outcome (SK-MEL-2 melanoma)?
**A.** inactive

**Q.** What about the outcome (SR leukemia) of the same molecule?
**A.** inactive

**Q.** And the outcome (SNB-75 CNS)?
**A.** inactive

**Q.** And the outcome (IGROV1 ovarian)?
**A.** inactive

**Q.** What about the outcome (HT29 colon) of the same molecule?
**A.** inactive

**Q.** What about the outcome (MALME-3M melanoma) of the same molecule?
**A.** inactive

**Q.** And the outcome (OVCAR-3 ovarian)?
**A.** inactive

**Q.** What about the outcome (RXF 393 renal) of the same molecule?
**A.** inactive

**Q.** And the outcome (SK-OV-3 ovarian)?
**A.** inactive

**Q.** And the outcome (XF 498 CNS)?
**A.** inactive

**Q.** And the outcome (TK-10 renal)?
**A.** inactive

**Q.** What about the outcome (HCT-15 colon) of the same molecule?
**A.** inactive

**Q.** What about the outcome (U251 CNS) of the same molecule?
**A.** inactive

**Q.** And the outcome (DLD-1 colon)?
**A.** inactive

**Q.** And the outcome (OVCAR-4 ovarian)?
**A.** inactive

**Q.** What about the outcome (SF-268 CNS) of the same molecule?
**A.** inactive

**Q.** And the outcome (HOP-92 NSCLC)?
**A.** inactive

**Q.** And the outcome (DMS 273 small cell lung)?
**A.** inactive

**Q.** What about the outcome (SF-539 CNS) of the same molecule?
**A.** inactive

**Q.** What about the outcome (UACC-257 melanoma) of the same molecule?
**A.** inactive

**Q.** And the outcome (SW-620 colon)?
**A.** inactive

**Q.** And the outcome (SNB-78 CNS)?
**A.** inactive

**Q.** What about the outcome (KM12 colon) of the same molecule?
**A.** inactive

**Q.** And the outcome (COLO 205 colon)?
**A.** inactive

**Q.** What about the outcome (HOP-62 NSCLC) of the same molecule?
**A.** inactive

**Q.** What about the outcome (LOX IMVI melanoma) of the same molecule?
**A.** inactive

**Q.** What about the outcome (NCI-H460 lung) of the same molecule?
**A.** inactive

**Q.** And the outcome (K-562 leukemia)?
**A.** inactive

**Q.** What about the outcome (LXFL 529 NSCLC) of the same molecule?
**A.** inactive

**Q.** What about the outcome (UO-31 renal) of the same molecule?
**A.** inactive

**Q.** What about the outcome (CCRF-CEM leukemia) of the same molecule?
**A.** inactive

**Q.** What about the outcome (786-0 renal) of the same molecule?
**A.** inactive

**Q.** What about the outcome (CAKI-1 renal) of the same molecule?
**A.** inactive

**Q.** And the outcome (EKVX NSCLC)?
**A.** inactive

**Q.** And the outcome (HL-60(TB) leukemia)?
**A.** inactive

**Q.** And the outcome (SNB-19 CNS)?
**A.** inactive

**Q.** And the outcome (M14 melanoma)?
**A.** inactive

**Q.** And the outcome (NCI-H23 lung)?
**A.** inactive

**Q.** And the outcome (SN12C renal)?
**A.** inactive

**Q.** And the outcome (SF-295 CNS)?
**A.** inactive

**Q.** And the outcome (UACC-62 melanoma)?
**A.** inactive

**Q.** And the outcome (KM20L2 colon)?
**A.** inactive

**Q.** What about the outcome (ACHN renal) of the same molecule?
**A.** inactive

**Q.** What about the outcome (OVCAR-5 ovarian) of the same molecule?
**A.** inactive

**Q.** What about the outcome (A549 NSCLC) of the same molecule?
**A.** inactive

**Q.** Which results are given for `COc1ccc(/C(=N\N=C(N)N)C(c2ccc(OC)cc2)C2OC(=O)c3ccccc32)cc1` (stereo not given)?
**A.** TGI (OVCAR-8 ovarian): > 100 µM; TGI (MOLT-4 leukemia): > 100 µM; TGI (HCC-2998 colon): > 100 µM; TGI (NCI-H522 lung): > 100 µM; TGI (NCI-H226 lung): > 100 µM; TGI (RPMI-8226 leukemia): > 100 µM; TGI (RXF-631 renal): > 100 µM; TGI (SR leukemia): > 100 µM; TGI (SNB-75 CNS): > 100 µM; TGI (IGROV1 ovarian): > 100 µM; TGI (HT29 colon): > 100 µM; TGI (MALME-3M melanoma): > 100 µM; TGI (OVCAR-3 ovarian): > 100 µM; TGI (RXF 393 renal): > 100 µM; TGI (SK-OV-3 ovarian): > 100 µM; TGI (XF 498 CNS): > 100 µM; TGI (HCT-15 colon): > 100 µM; TGI (U251 CNS): > 100 µM; TGI (DLD-1 colon): > 100 µM; TGI (OVCAR-4 ovarian): > 100 µM; TGI (SF-268 CNS): > 100 µM; TGI (DMS 114 small cell lung): > 100 µM; TGI (HOP-92 NSCLC): > 100 µM; TGI (HCT-116 colon): > 100 µM; TGI (DMS 273 small cell lung): > 100 µM; TGI (SF-539 CNS): > 100 µM; TGI (UACC-257 melanoma): > 100 µM; TGI (SW-620 colon): > 100 µM; TGI (SNB-78 CNS): > 100 µM; TGI (KM12 colon): > 100 µM; TGI (COLO 205 colon): > 100 µM; TGI (HOP-62 NSCLC): > 100 µM; TGI (LOX IMVI melanoma): > 100 µM; TGI (NCI-H460 lung): > 100 µM; TGI (SK-MEL-28 melanoma): > 100 µM; TGI (K-562 leukemia): > 100 µM; TGI (LXFL 529 NSCLC): > 100 µM; TGI (UO-31 renal): > 100 µM; TGI (CCRF-CEM leukemia): > 100 µM; TGI (786-0 renal): > 100 µM; TGI (CAKI-1 renal): > 100 µM; TGI (M19-MEL melanoma): > 100 µM; TGI (HL-60(TB) leukemia): > 100 µM; TGI (SNB-19 CNS): > 100 µM; TGI (M14 melanoma): > 100 µM; TGI (NCI-H23 lung): > 100 µM; TGI (SN12C renal): > 100 µM; TGI (SF-295 CNS): > 100 µM; TGI (UACC-62 melanoma): > 100 µM; TGI (KM20L2 colon): > 100 µM; TGI (ACHN renal): > 100 µM; TGI (SK-MEL-5 melanoma): > 100 µM; TGI (OVCAR-5 ovarian): > 100 µM; TGI (A549 NSCLC): > 100 µM
